Data taken from paper PMC11555231 (Nature Communications, 2024).
Bridge positions count the residues as written; N and C are the ends. Square brackets hold non-standard residues; d marks the D form. Peptide text beside a SMILES is read from it.

What was measured:
human neutrophils = experiment: Time-lapse imaging and NET quantification (NETosis); type: cell-based; details: 50 µM peptide, 5 µM Ca-Ionophore, 12 h
Method: Peripheral venous blood was isolated from consenting healthy adult volunteers in heparin tubes as previously described. Briefly, blood samples were on Histopaque 1119 (Sigma-Aldrich) and then centrifuged for 20 min at 800 × g. The plasma was collected and centrifuged for a second time for 20 min at 800 × g. The neutrophil layer was collected and washed in Hyclone Hank’s Balanced Salt Solution (HBSS) -Ca, -Mg, -Phenol red (GE Healthcare) supplemented with 10 mM HEPES (Invitrogen) 0.1% FBS and further purified with a discontinuous Percoll (GE Healthcare) gradient consisting of layers with densities of 85, 80, 75, 70 and 65% and centrifuged for 20 min at 800 × g. Neutrophil-enriched layers were then collected and washed, and neutrophil purity was assessed using flow cytometry.
About 5 × 10^4 human neutrophils were seeded in a black 96-well plate (PerkinElmer) in HyClone HBSS +Ca, +Mg, - Phenol red (GE Healthcare) containing 10 mM HEPES (Invitrogen). Cells were pre-incubated with the corresponding peptide for 60 min prior to the start of the experiment. DNA of live cells was stained with 4 µg/mL Hoechst (membrane permeable; Thermo Scientific) and DNA from dead cells with 0.2 µM Sytox-green (membrane impermeable; Invitrogen). Cells were stimulated with 100 nM PMA, 5 µM Ca-Ionophore or 0.1 mg/mL cholesterol crystals at the start of the microscope acquisition. Plates stimulated with cholesterol crystals were centrifuged at 300×g for 5 min at RT immediately prior to microscope acquisition. The cells were imaged on an inverted Nikon wide-field microscope system at 37 °C and CO2 (5%). Four fields of view were acquired per well every 15 mins for 10–15 h using a 40x objective. NETs were differentiated from necrotic cells by the size of the sytox signal using FIJI[86]. […] [85]. Area measurements were distributed into bins of increasing area sizes and plotted as a percentage of the total number of Sytox-green positive (dead) cells.

Bio-hPADI4 wt = molecular target: T1, Bio-hPADI4 wt (Homo sapiens, UniProt Q9UM07); experiment: Surface plasmon resonance (SPR), single cycle kinetics, peptide binding to immobilised PADI4
T1 construct: PADI4 (residues 1–663); Avi-Tag (biotinylated by BirA); made in house; host or cells: E. coli BL21-DE3 co-expressing BirA
T1 sequence (Q9UM07 whole entry, the tested form may be a part): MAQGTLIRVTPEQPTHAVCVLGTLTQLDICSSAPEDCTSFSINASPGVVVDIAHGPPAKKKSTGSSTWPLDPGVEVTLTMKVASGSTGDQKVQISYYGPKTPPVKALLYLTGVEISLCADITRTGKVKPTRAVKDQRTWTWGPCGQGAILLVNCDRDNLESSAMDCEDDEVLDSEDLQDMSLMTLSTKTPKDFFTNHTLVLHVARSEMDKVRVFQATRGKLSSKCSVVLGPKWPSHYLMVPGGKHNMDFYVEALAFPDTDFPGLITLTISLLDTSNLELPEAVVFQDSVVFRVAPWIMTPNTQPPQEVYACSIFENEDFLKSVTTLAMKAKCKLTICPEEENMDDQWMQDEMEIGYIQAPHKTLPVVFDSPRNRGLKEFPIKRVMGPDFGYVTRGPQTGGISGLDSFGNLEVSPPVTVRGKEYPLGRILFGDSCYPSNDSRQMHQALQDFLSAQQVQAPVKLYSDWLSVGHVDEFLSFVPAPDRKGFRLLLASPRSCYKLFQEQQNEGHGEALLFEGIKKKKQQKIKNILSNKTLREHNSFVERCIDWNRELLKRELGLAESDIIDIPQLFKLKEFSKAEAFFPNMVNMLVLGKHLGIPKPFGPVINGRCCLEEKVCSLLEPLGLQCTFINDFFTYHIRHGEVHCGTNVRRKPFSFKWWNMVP
Method: Single cycle kinetics analysis by SPR was carried out using a Biacore T200 or S200 and a Biotin CAPture kit, series S (Cytiva). […] 50 mM HEPES (pH 7.5), 150 mM NaCl, 2 mM DTT, 0.05 % Tween-20, 0.1% DMSO and variable CaCl2 (as specified) was used as the running buffer and experiments performed at 25 °C.
Samples were run with 120 s contact time, and variable dissociation time (often 360 s). Data were analysed using the Biacore T200 analysis software; data was fitted to a 1:1 binding model accounting for baseline drift where necessary. Data are presented as the average ± standard deviation of at least two independent replicates.

N=C(N)NCCC[C@@H]1NC(=O)[C@H](CC(=O)O)NC(=O)[C@@H](Cc2ccc(O)cc2)NC(=O)CSC[C@@H](C(=O)NCC(N)=O)NC(=O)[C@H](Cc2ccc(O)cc2)NC(=O)[C@H](CCCCN)NC(=O)[C@@H]2CCCN2C(=O)[C@H](Cc2c[nH]cn2)NC(=O)[C@H](CCCNC(=N)N)NC(=O)[C@H](Cc2ccc(O)cc2)NC(=O)[C@H](Cc2c[nH]cn2)NC(=O)[C@H](Cc2c[nH]cn2)NC1=O [PADI4_3i] ({CH2CO}-[dY]DRHHYRHPKYCG-NH2; thioether N-12)
NETosis induced by calcium ionophore (human neutrophils): neither response was affected | binding to PADI4 (in words) (Bio-hPADI4 wt): did not bind
